{"source": "patent US20240382557A1", "about": "“INHIBITION OF TUMOR NECROSIS FACTOR, PRO-INFLAMMATORY CYTOKINES AND OTHER INFLAMMATORY RESPONSE MEDIATORS” (Allegro Pharmaceuticals, LLC, priority 2021, published 2024)", "key": {"[1]": {"tested_on": "Human umbilical vein endothelial cells (HUVEC)", "experiment": "RNA-seq gene expression in HUVEC treated with hypoxia and cytokines", "assay_type": "cell-based", "source_text": "Purpose: A chronic pro-inflammatory condition is associated with many ocular diseases, including DED, AMD, and DR. During this process, tissue resident and peripheral immune cells are activated and contribute to formation of a cytotoxic inflammatory state that causes tissue damage and vision loss. In this study, RNA-seq was used to unbiasedly identify the genes regulated by risuteganib treatment in human endothelial cells exposed to hypoxia and cytokines. Analysis of the specific subset of genes regulated by risuteganib enables identification of biological processes and pathways modulated by the oligopeptide.\nMethods: Human umbilical vein endothelial cells (HUVEC) were used between passage 3 to 5. All cells were grown at 3% O2 to stimulate endothelial cells into a more angiogenic state. Cells were divided into four treatment groups: control, cytokines for 48 hours, 500 uM risuteganib for 24 hours, and cytokines for 48 hours with 500 uM risuteganib for 24 hours. Cytokine treatment contains both human TNF-a and IL-1b at 1 ng/ml at final concentration. After exposure, cells were collected and their total RNA isolated for RNA-seq. The generated reads were then aligned to human reference genome/transcriptome and gene expression quantified for differential expression analysis and fold change calculation. The list of regulated genes was then used to identify biological processes and pathways that are regulated after risuteganib exposure with cytokine exposure."}, "[2]": {"experiment": "Intravenous infusion to dogs, toxicity", "assay_type": "in vivo", "details": "1.0 mg/kg, 5.0 mg/kg and 8.0 mg/kg", "experimental": "The peptides disclosed herein may be administered at any effective dosages, as a single dose or multiple doses, and by any suitable routes of administration. For some systemic treatments, administration by injection or intravenous infusion may be preferable. […] Accordingly, in at least some applications, risuteganib may be administered, for example, by intravenous infusion at a dosage ranging from 1 mg/kg to 8 mg/kg. Other dosage levels and other routes of administration may also be suitable and effective."}, "[3]": {"details": "3% O2, 500 uM risuteganib for 24 hours"}}, "note": "Where a SMILES comes first, the peptide text is derived from it. [ ]: non-standard residue; d: D form. Cya = N[C@@H](CS(=O)(=O)O)C(=O)O", "data": [{"smiles": "C[C@@H](O)[C@H](NC(=O)[C@H](CS(=O)(=O)O)NC(=O)CNC(=O)[C@H](CCCNC(=N)N)NC(=O)CN)C(=O)N1CCC[C@H]1C(=O)O", "note": "[Risuteganib, Glycyl-L-arginylglycyl-3-sulfo-L-alanyl-L-threonyl-L-proline] (H-GRG[Cya]TP-OH)", "values": [{"measurement": "CCL2 Mean Expression Rate (Normalized as Fraction Control)", "setting": "[1]; [3]", "result": 0.8696}, {"measurement": "CCL20 Mean Expression Rate (Normalized as Fraction Control)", "setting": "[1]; [3]", "result": 0.6328}, {"measurement": "CFH Mean Expression Rate (Normalized as Fraction Control)", "setting": "[1]; [3]", "result": 0.9706}, {"measurement": "CXCL5 Mean Expression Rate (Normalized as Fraction Control)", "setting": "[1]; [3]", "result": 1.166}, {"measurement": "CXCL6 Mean Expression Rate (Normalized as Fraction Control)", "setting": "[1]; [3]", "result": 0.9699}, {"measurement": "IL6 Mean Expression Rate (Normalized as Fraction Control)", "setting": "[1]; [3]", "result": 0.9982}, {"measurement": "IL7R Mean Expression Rate (Normalized as Fraction Control)", "setting": "[1]; [3]", "result": 1.036}, {"measurement": "SELE Mean Expression Rate (Normalized as Fraction Control)", "setting": "[1]; [3]", "result": 0.7022}, {"measurement": "TNFAIP3 Mean Expression Rate (Normalized as Fraction Control)", "setting": "[1]; [3]", "result": 0.946}, {"measurement": "TNFAIP6 Mean Expression Rate (Normalized as Fraction Control)", "setting": "[1]; [3]", "result": 0}, {"measurement": "TNFRSF11B Mean Expression Rate (Normalized as Fraction Control)", "setting": "[1]; [3]", "result": 0.8931}, {"measurement": "genes regulated by both risuteganib and cytokines that are regulated in opposite directions", "setting": "[1]; 342/403 genes", "result": 85, "unit": "%"}, {"measurement": "reversing the transcriptome changes associated with cytokine treatment (Pearson's r)", "setting": "[1]; cytokine-activated condition", "result": "−0.267"}, {"measurement": "number of pathways down-regulated by risuteganib (pathway analysis)", "setting": "[1]; incl. cytokine-cytokine receptor interaction, TNF signaling, IL-17 signaling", "result": 10}, {"measurement": "toxicity or side effects", "setting": "[2]", "result": "without significant toxicity or side effects"}]}]}
